Source: patent US10940173B2, “Cannabis oil extracts and compositions” (priority 2015, dated 2021)
Like-named read-outs stand apart in the source and are kept apart here.

Columns and labels:
Assay type in all cases: cell-based
CNR1 (also known as CB1) [1] = molecular target: T1, CNR1 (also known as CB1) (Homo sapiens, UniProt P21554); settings: read-out: CNR1 cAMP EC50
CNR2 (also known as CB2) [2] = molecular target: T2, CNR2 (also known as CB2) (Homo sapiens, UniProt P34972); experiment: cAMP competitive inhibition immunoassay (HitHunter), CNR2; settings: cAMP assay
T2 sequence (P34972 whole entry, the tested form may be a part): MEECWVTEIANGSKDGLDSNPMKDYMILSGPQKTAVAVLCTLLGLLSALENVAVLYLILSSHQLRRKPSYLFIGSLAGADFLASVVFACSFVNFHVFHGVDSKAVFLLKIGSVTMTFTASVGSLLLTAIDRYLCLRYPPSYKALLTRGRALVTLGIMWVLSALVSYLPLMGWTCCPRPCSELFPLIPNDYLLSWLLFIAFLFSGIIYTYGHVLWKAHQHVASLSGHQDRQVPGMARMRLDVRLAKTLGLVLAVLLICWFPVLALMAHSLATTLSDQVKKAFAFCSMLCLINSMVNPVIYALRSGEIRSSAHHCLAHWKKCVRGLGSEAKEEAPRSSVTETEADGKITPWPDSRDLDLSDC

CNR2 (also known as CB2) [3] = molecular target: T2, CNR2 (also known as CB2); experiment: β-arrestin GPCR assay (PathHunter), CNR2; set-up: β-galactosidase enzyme fragment (complementation partner); settings: β-arrestin recruitment
CNR1 (also known as CB1) [4] = molecular target: T1, CNR1 (also known as CB1); set-up: β-galactosidase enzyme fragment (complementation partner); settings: read-out: CNR1 β-Arrestin EC50

T1 sequence (P21554 whole entry): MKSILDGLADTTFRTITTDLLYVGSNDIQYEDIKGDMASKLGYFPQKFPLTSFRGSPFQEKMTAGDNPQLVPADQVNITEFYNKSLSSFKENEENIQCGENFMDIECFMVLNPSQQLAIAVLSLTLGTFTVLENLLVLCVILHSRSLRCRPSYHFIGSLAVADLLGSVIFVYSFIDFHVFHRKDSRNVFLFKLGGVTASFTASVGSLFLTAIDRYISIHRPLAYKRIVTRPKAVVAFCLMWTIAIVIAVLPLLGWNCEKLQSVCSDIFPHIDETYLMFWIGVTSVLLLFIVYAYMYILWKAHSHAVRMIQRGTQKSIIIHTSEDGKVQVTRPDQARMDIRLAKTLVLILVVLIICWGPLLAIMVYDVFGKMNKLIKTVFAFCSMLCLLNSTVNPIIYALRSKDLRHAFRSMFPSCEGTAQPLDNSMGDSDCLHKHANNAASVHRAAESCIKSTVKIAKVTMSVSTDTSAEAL

SMILES: CCCCCc1cc(O)c2c(c1)OC(C)(C)[C@@H]1CCC(CO)=C[C@@H]21 [Example 11-OH-THC]
- EC50 (CNR1 (also known as CB1) [1]): 10.8 nM
- EC50 (CNR2 (also known as CB2) [2]): 571 nM
- EC50 (CNR2 (also known as CB2) [3]): > 16700 nM
- EC50 (CNR1 (also known as CB1) [4]): > 16700 nM
